# From patent publication US12161669B2, “Compositions and methods for cell targeting therapies” (UMC UTRECHT HOLDING B.V., priority 2017, dated 2024)
# Experiments:
# RhoB GTPase = biological target: T1, RhoB GTPase (Homo sapiens, UniProt P62745); test: Biolayer interferometry of RhoB binding to BTN3A1 (CD277) intracellular domains; conditions: for kd (1/s) / kd(1/Ms) / Kd: BLI, 1:1 binding model; for Kd: RhoB immobilized on Ni-NTA biosensor, cHDMAPP at 1:1 where named; for RhoB binding to recombinant CD277 intracellular domain constructs: without phosphoantigen
# T1 construct: The full length RhoB protein was cloned into the pET 28a vector; thrombin cleavage site (C); made in house; host or cells: Escherichia coli BL21
# T1 sequence (O00481 272-513 partner limits assumed): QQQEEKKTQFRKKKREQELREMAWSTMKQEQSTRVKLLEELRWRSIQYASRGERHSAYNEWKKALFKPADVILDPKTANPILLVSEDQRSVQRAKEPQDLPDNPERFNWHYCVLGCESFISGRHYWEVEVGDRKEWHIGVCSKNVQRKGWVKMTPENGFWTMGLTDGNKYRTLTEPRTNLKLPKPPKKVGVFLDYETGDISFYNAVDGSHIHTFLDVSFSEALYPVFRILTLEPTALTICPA
# T1 sequence (P62745 1-192 limits assumed): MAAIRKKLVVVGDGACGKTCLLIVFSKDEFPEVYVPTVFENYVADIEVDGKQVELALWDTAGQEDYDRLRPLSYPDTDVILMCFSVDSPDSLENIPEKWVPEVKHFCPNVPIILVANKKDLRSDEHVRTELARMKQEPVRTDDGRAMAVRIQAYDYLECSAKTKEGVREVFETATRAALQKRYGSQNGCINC
# Method: To determine whether CD277 exists as a homodimer when expressed in a cellular context, and to study RhoB-CD277 interactions at even higher resolution, close interactions by utilizing fluorescence resonance energy transfer (FRET) were examined. Flow cytometry FRET measurements were performed on ABP-sensitive HEK 293 cells, by either overexpressing FRET compatible fusion proteins or labeling endogenous proteins with antibodies coupled to FRET-compatible fluorochromes. […] Biolayer Interferometry (BLI) was used to formally define a possible docking site for RhoB on the intracellular domain of CD277.
# The interactions between RhoB and BTN3A1 full-length intracellular domain (BFI) or BTN3A1 B30.2 domain were measured using Biolayer interferometry (BLItz, FortéBio). The BLI buffer used in baseline equilibration and the dissociation step was prepared with 10 mM Hepes pH7.2, 150 mM NaCl, 0.02% azide, 5 mM MgCl2, 4 mM BME. RhoB, at a concentration of 2 mg/ml, was immobilized on the Ni-NTA biosensor hydrated with the BLI buffer using the basic kinetics method with the following parameters: 30 s for baseline, 300 s for association and 300 s for dissociation. The RhoB-mounted biosensor was then blocked by 1 mg/ml BSA and equilibrated with the BLI buffer using a similar method with the following parameters: 30 s for baseline, 120 s for association and 120 s for dissociation. The buffer run served as a reference for the subsequent experiments. […] The ratio between cHDMAPP and BFI or B30.2 domain was kept at 1:1 for these measurements. The rate and affinity constants for binding interactions were analyzed by Biaevulation (Biacore Life Sciences). The data was truncated to 180 s and the ka and kd were fitted simultaneously using 1:1 binding with drift baseline model.
# EBV-LCL 93 cells = test: IFNγ by Vγ9Vδ2 TCR+ T cells against Rho-modulator pretreated EBV-LCL 93; format: cell-based; conditions: target cell pretreatment with Rho activator, in combination with pamidronate or IPP
# Method: (§1) The impact of RhoB GTPase activity on Vγ9Vδ2 TCR+ T cell activation was assessed by […] different tumor cell lines with either the Rho GTPase activator calpeptin or inhibitor C3 transferase. […] To specify that enzymatic activity of RhoB regulates tumor cell recognition by Vγ9Vδ2 TCR+ T cells, we transfected HEK 293 cells with wildtype or dominant negative form corresponding to the GDP-bound state (RhoB-DN), or with the constitutively active form corresponding to the GTP-bound form (RhoB-CA) of RhoB (Kamon et al., 2006) and used them as target cells for Vγ9Vδ2 TCR+ T cells (FIG. 4E).
# (§2) Alternatively, Vγ9Vδ2 TCR-transduced T cells and target cells were cocultured as above in round-bottom 96-well plates, and IFNγ levels in supernatants were measured by ELISA. Where indicated, target cells were pretreated with pamidronate (100 μM), IPP (15 μM), FTI (10 μM), GGTI (50 μM), calpeptin (2 μg/ml) or C3 transferase (20 μg/ml) prior to coincubation. For testing stimulation of WT1 αβTCR-transduced T cells, the HLA-A2+ cell lines EBV-LCL 48 and MZ1851RC were pulsed with 10 μM WT1126−134 peptide.
# CD277 and F-actin = test: Colocalization of CD277 and F-actin in HEK 293 cells; format: cell-based
# Method: To determine colocalization between BTN3 molecules and the actin cytoskeleton, HEK 293 cells were grown onto poly-L-lysin-coated coverslips and pretreated with either calpeptin (2 μg/ml) or C3 transferase (20 μg/ml) prior to treating samples with pamidronate Cells were fixed, permeabilized and BTN3 and F-actin were stained with DyLight 680-conjugated BTN3 antibody (clone BT3.1, Novus Biologicals) and Fluorescein-coupled phalloidin (Sigma), respectively. The correlation coefficient between BTN3 and F-actin signal was determined as a measure of colocalization using Volocity software.
# CD277 [1] = test: FRAP of CD277-emGFP membrane mobility in HEK 293 cells; format: cell-based; conditions: 293 HEK cells; for CD277 membrane mobility (immobile fraction, FRAP): single agent
# Method: FRAP analysis was performed as previously described (Harly et al., 2012, Sandstrom et al., 2014). In brief, HEK293FT cells expressing either EmGFP-fused CD277 were laid on m-slides (Ibidi) and analyzed using a Nikon A1 RS confocal microscope (60×NA 1.40 oil immersion objective). Selected rectangular areas were photobleached for 500 ms by using full power of laser intensity (>90% of loss of fluorescence). Images were collected every 5 s, before (30 s) and after (120 s) bleaching using low laser intensity. Images were analyzed with Metamorph 7.5 (Molecular Devices, Universal Imaging) and NIS (Nikon) imaging software. The resulting curves were fitted using one-phase exponential equations.
# LCL 48 cells = test: IFNγ by Vγ9Vδ2 TCR+ T cells against Rho-modulator pretreated EBV-LCL 48; format: cell-based; conditions: target cell pretreatment with Rho inhibitor, in combination with pamidronate or IPP
# Method: as §1, §2
# CD277 [2] = test: Flow cytometry FRET between BODIPY FL-stained membrane and anti-CD277 mAbs (CD277 conformational change), HEK 293 cells; format: cell-based; conditions: with ABP
# Method: Conformational change of BTN3 molecule was determined similarly as described in ([…] et al., 2001). Cells were labeled with 5 ug/ml BODIPY-FL DPHE (donor) (Life Technologies) for 10 minutes on ice and then 10 minutes at 37 C, then washed extensively with ice-cold PBS. Cells were subsequently labeled with mouse anti-CD277 mAbs (either clone #20.1 or #103.2) and Alexa594-conjugated Goat anti-Mouse Fab fragments (Jackson ImmunoResearch). After washing, cells were resuspended in ice cold PBS and measured immediately using a FACS Canto-II flowcytometer (BD). FRET efficiency was calculated from the fractional decrease of the donor fluorescence in the presence of the acceptor.
Molecule,"CD277 membrane mobility (immobile fraction, FRAP) (CD277 [1])",kd (1/s) (RhoB GTPase) [s⁻¹],kd(1/Ms) (RhoB GTPase) [M⁻¹ s⁻¹],Kd (RhoB GTPase) [µM],RhoB binding to recombinant CD277 intracellular domain constructs (RhoB GTPase),also measured
"C/C(=C\CCP(=O)(O)OP(=O)(O)O)CO [cHDMAPP, (2E)-1-hydroxy-2-methylpent-2-enyl-pyrophosphonate]",,,,,,RhoB binding to BFI in the presence of soluble phosphoantigen (RhoB GTPase; phosphoantigen 1:1 with BFI): almost completely abolished
CCCC[C@@H](C=O)NC(=O)[C@H](CC(C)C)NC(=O)OCc1ccccc1 [calpeptin],induced immobilization of CD277 to similar levels as those of ABP treatment alone,,,,,recognition of EBV-LCL 93 cells by Vγ9Vδ2 TCR+ T cells (IFNγ) (EBV-LCL 93 cells): significantly sensitized; colocalization between CD277 and F-actin (CD277 and F-actin; single agent vs medium): reduced tantalization between CD277 and F-actin to comparable levels observed with ABP treatment
"O=P(O)(O)C(O)(Cn1ccnc1)P(=O)(O)O [zoledronate, zoledronic acid monohydrate]",decreased CD277 membrane mobility,,,,,
C3 transferase,,,,,,activation of Vγ9Vδ2 TCR+ T cells by LCL 48 cells (IFNγ) (LCL 48 cells): significantly reduced activation; effect on ABP-induced CD277-actin segregation (CD277 and F-actin; pretreatment before pamidronate): prevented ABP-induced CD277-actin segregation; effect on ABP-driven conformational changes of the CD277 homodimer (CD277 [2]): did not prevent; effect on ABP-induced immobilization of CD277 (CD277 [1]; together with zoledronate): counteracted this ABP-effect
RhoB-B30.2: interaction of RhoB with recombinant CD277 B30.2 domain lacking the N terminal connector region,,0.206,2020,102,significantly reduced,
RhoB-BFI: interaction of RhoB GTPase with recombinant full length BTN3A1 intracellular domain (BFI),,0.04351,2200,19.7,detected,
